These results are taken from patent publication US9834558B2, “Substituted bridged urea analogs as sirtuin modulators” (GLAXOSMITHKLINE LLC, priority 2013, dated 2017).

Counter-ions that a name gives are not always drawn. Like-named read-outs stand apart in the source and are kept apart here.

In this assay the target is T1, SIRT1 (Homo sapiens, UniProt Q96EB6).
T1 sequence (Q96EB6 1-747): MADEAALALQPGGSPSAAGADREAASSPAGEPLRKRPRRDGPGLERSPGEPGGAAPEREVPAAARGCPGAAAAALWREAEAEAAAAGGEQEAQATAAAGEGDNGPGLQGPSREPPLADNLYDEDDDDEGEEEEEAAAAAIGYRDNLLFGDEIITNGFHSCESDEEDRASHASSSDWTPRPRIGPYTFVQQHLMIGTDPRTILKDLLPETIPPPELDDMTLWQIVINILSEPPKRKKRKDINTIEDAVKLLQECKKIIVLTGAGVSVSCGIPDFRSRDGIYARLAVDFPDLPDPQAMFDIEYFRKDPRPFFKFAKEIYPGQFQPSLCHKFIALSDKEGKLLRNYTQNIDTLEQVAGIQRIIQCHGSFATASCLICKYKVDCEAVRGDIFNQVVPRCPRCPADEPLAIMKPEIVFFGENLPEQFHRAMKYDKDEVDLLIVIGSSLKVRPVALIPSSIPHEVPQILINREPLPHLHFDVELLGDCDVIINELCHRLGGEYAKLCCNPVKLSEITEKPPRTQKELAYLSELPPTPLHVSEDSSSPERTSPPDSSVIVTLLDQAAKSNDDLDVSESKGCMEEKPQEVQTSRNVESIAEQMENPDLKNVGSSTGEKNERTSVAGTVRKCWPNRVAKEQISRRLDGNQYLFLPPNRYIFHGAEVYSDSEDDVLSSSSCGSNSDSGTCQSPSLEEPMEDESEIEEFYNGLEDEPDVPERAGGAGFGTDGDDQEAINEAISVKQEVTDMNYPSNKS
Put plainly: Trp mass spectrometry assay of SIRT1 activation. The class given is biochemical. As to conditions: for TRP Activity (EC1.5): EC1.5 = concentration that results in 150% activation of SIRT1; for Emax: read-out: TRP MAX RESP (percent maximum fold activation). An excerpt:
Mass spectrometry based assays were used to identify modulators of SIRT1 activity. […] The peptide was labeled with the fluorophore STMR (excitation 540 nm/emission 580 nm) at the C-terminus. The sequence of the peptide substrate was based on p53 with several modifications. In addition, the methionine residue naturally present in the sequence was replaced with the norleucine because the methionine may be susceptible to oxidation during synthesis and purification. The Trp based assay utilized a peptide having an amino acid residues as follows: Ac-R-H-K-K(Ac)-W-NH2 (SEQ ID NO: 2).
The Trp mass spectrometry assay was conducted as follows. 0.5 μM peptide substrate and 120 μM βNAD^+ were incubated with 10 nM SIRT1 for 25 minutes at 25° C. in a reaction buffer (50 mM HEPES pH 7.5, […], 1 mM DTT, 0.05% BSA). The SIRT1 protein was obtained by cloning the SirT1 gene into a T7-promoter containing vector, which was then expressed in BL21(DE3) bacterial cells and purified as described in further detail below. Test compound was added at varying concentrations to this reaction mixture and the resulting reactions were monitored. After the 25 minute incubation with SIRT1, 10 μL of 10% formic acid was added to stop the reaction. The resulting reactions were sealed and frozen for later mass spec analysis. The relative SIRT1 activity was then determined by measuring the amount of O-acetyl-ADP-ribose (OAADPR) formed (or, alternatively, the amount of deacetylated Trp peptide generated) by the NAD-dependent sirtuin deacetylation reaction in the presence of varying concentrations of the test compound versus control reactions lacking the test compound. The degree to which the test agent activated deacetylation by SIRT1 was expressed as EC1.5 (i.e., the concentration of compound required to increase SIRT1 activity by 50% over the control lacking test compound), and Percent Maximum Activation (i.e., the maximum activity relative to control (100%) obtained for the test compound).
This time point was the same as that used for test compounds and, within the linear range, the endpoint represents a change in velocity.
For the above assay, SIRT1 protein was expressed and purified as follows. The SirT1 gene was cloned into a T7-promoter containing vector and transformed into BL21(DE3). The protein was expressed by induction with 1 mM IPTG as an N-terminal His-tag fusion protein at 18° C. overnight and harvested at 30,000×g. Cells were lysed with lysozyme in lysis buffer (50 mM Tris-HCl, 2 mM Tris[2-carboxyethyl]phosphine (TCEP), 10 μM ZnCl2, 200 mM NaCl) and further treated with sonication for 10 min for complete lysis. The protein was purified over a Ni-NTA column (Amersham) and fractions containing pure protein were pooled, concentrated and run over a sizing column (Sephadex S200 26/60 global). The peak containing soluble protein was collected and run on an Ion-exchange column (MonoQ). Gradient elution (200 mM-500 mM NaCl) yielded pure protein. This protein was concentrated and dialyzed against dialysis buffer (20 mM Tris-HCl, 2 mM TCEP) overnight. The protein was aliquoted and frozen at −80° C. until further use.
“NT” means not tested; “ND” means not determinable.

[1] abbreviates: Trp peptide assay, maximum activity relative to control (100%).

As for `Cc1cc(-c2ccc3c(n2)N(C(=O)Nc2nccc(C)n2)[C@H]2CCN3C2)ccn1` [(9S)-5-(2-methylpyridin-4-yl)-N-(4-methylpyrimidin-2-yl)-1,6,8-triazatricyclo[7.2.1.0^{2,7}]dodeca-2,4,6-triene-8-carboxamide], the “TRP Activity (EC1.5)” value (Trp peptide assay) is given as “B (B (EC1.5 1-25 μM))”. Under setting [1], the Emax is over 150%.
On to `Cc1cc(-c2ccc3c(n2)N(C(=O)Nc2ncnc4[nH]cnc24)[C@H]2CCN3C2)ccn1` [(9S)-5-(2-methylpyridin-4-yl)-N-(9H-purin-6-yl)-1,6,8-triazatricyclo[7.2.1.0^{2,7}]dodeca-2,4,6-triene-8-carboxamide], for which the Emax is over 150%. In addition, where the note is “Trp peptide assay”, the “TRP Activity (EC1.5)” value is listed as “B (B (EC1.5 1-25 μM))”.
As for `Cc1cc(-c2ccc3c(n2)N(C(=O)Nc2cnccn2)[C@H]2CCCN3C2)ccn1` [(9S)-5-(2-methylpyridin-4-yl)-N-(pyrazin-2-yl)-1,6,8-triazatricyclo[7.3.1.0 {2,7}]trideca-2(7),3,5-triene-8-carboxamide], the “TRP Activity (EC1.5)” value (Trp peptide assay) was “A (A (EC1.5<1 μM))”. Also, the Emax under setting [1] is over 150%.
With `Cc1cc(-c2ccc3c(n2)N(C(=O)Nc2cccnn2)[C@H]2CCN3C2)ccn1` [(9S)-5-(2-methylpyridin-4-yl)-N-(pyridazin-3-yl)-1,6,8-triazatricyclo[7.2.1.0 {2,7}]dodeca-2(7),3,5-triene-8-carboxamide], under “Trp peptide assay”, the “TRP Activity (EC1.5)” value was “B (B (EC1.5 1-25 μM))”. The Emax under setting [1] was over 150%.
`Cc1cc(-c2ccc3c(n2)N(C(=O)Nc2cccnn2)[C@H]2CCCN3C2)ccn1` [(9S)-5-(2-methylpyridin-4-yl)-N-(pyridazin-3-yl)-1,6,8-triazatricyclo[7.3.1.0 {2,7}]trideca-2(7),3,5-triene-8-carboxamide]: the “TRP Activity (EC1.5)” value (Trp peptide assay) was “A (A (EC1.5<1 μM))”. For the same compound, the Emax under setting [1] is over 150%.
The corresponding values for `Cc1cc(-c2ccc3c(n2)N(C(=O)Nc2ccnnc2)[C@H]2CCN3C2)ccn1` [(9S)-5-(2-methylpyridin-4-yl)-N-(pyridazin-4-yl)-1,6,8-triazatricyclo[7.2.1.0^{2,7}]dodeca-2,4,6-triene-8-carboxamide] are “B (B (EC1.5 1-25 μM))” and over 150%.
On to `Cc1cc(-c2ccc3c(n2)N(C(=O)Nc2ccccn2)[C@H]2CCCN3C2)ccn1` [(9S)-5-(2-methylpyridin-4-yl)-N-(pyridin-2-yl)-1,6,8-triazatricyclo[7.3.1.0 {2,7}]trideca-2(7),3,5-triene-8-carboxamide], for which the “TRP Activity (EC1.5)” value (Trp peptide assay) is “A (A (EC1.5<1 μM))”. For the same compound, the Emax under setting [1] was over 150%.
Take `Cc1cc(-c2ccc3c(n2)N(C(=O)NCc2cccnc2)[C@H]2CCN3C2)ccn1` [(9S)-5-(2-methylpyridin-4-yl)-N-(pyridin-3-ylmethyl)-1,6,8-triazatricyclo[7.2.1.0 {2,7}]dodeca-2(7),3,5-triene-8-carboxamide]: the “TRP Activity (EC1.5)” value (Trp peptide assay) was “B (B (EC1.5 1-25 μM))”. The Emax under setting [1] was over 150%.
With `Cc1cc(-c2ccc3c(n2)N(C(=O)Nc2ccncn2)[C@H]2CCCN3C2)ccn1` [(9S)-5-(2-methylpyridin-4-yl)-N-(pyrimidin-4-yl)-1,6,8-triazatricyclo[7.3.1.0 {2,7}]trideca-2(7),3,5-triene-8-carboxamide], under “Trp peptide assay”, the “TRP Activity (EC1.5)” value is given as “A (A (EC1.5<1 μM))”. Moreover, under setting [1], the Emax is over 150%.
The corresponding values for `Cc1cc(-c2ccc3c(n2)N(C(=O)Nc2cncnc2)[C@H]2CCN3C2)ccn1` [(9S)-5-(2-methylpyridin-4-yl)-N-(pyrimidin-5-yl)-1,6,8-triazatricyclo[7.2.1.0 {2,7}]dodeca-2(7),3,5-triene-8-carboxamide] are “C (C (EC1.5>25 μM))” and over 150%.
As for `Cc1cc(-c2ccc3c(n2)N(C(=O)Nc2cncnc2)[C@H]2CCCN3C2)ccn1` [(9S)-5-(2-methylpyridin-4-yl)-N-(pyrimidin-5-yl)-1,6,8-triazatricyclo[7.3.1.0 {2,7}]trideca-2(7),3,5-triene-8-carboxamide], where the note is “Trp peptide assay”, the “TRP Activity (EC1.5)” value is “B (B (EC1.5 1-25 μM))”. The Emax under setting [1] was over 150%.
Turning to `Cc1cc(-c2ccc3c(n2)N(C(=O)Nc2cccc4nccnc24)[C@H]2CCN3C2)ccn1` [(9S)-5-(2-methylpyridin-4-yl)-N-(quinoxalin-5-yl)-1,6,8-triazatricyclo[7.2.1.0 {2,7}]dodeca-2,4,6-triene-8-carboxamide], the “TRP Activity (EC1.5)” value (Trp peptide assay) is “A (A (EC1.5<1 μM))”. The Emax under setting [1] was over 150%.
The corresponding values for `Cc1cc(-c2ccc3c(n2)N(C(=O)NCCc2ccccn2)[C@H]2CCN3C2)ccn1` [(9S)-5-(2-methylpyridin-4-yl)-N-[2-(pyridin-2-yl)ethyl]-1,6,8-triazatricyclo[7.2.1.0 {2,7}]dodeca-2(7),3,5-triene-8-carboxamide hydrochloride] are “C (C (EC1.5>25 μM))” and under 150%.
The corresponding values for `Cc1cc(-c2ccc3c(n2)N(C(=O)NCCc2cccnc2)[C@H]2CCN3C2)ccn1` [(9S)-5-(2-methylpyridin-4-yl)-N-[2-(pyridin-3-yl)ethyl]-1,6,8-triazatricyclo[7.2.1.0 {2,7}]dodeca-2(7),3,5-triene-8-carboxamide hydrochloride] are “C (C (EC1.5>25 μM))” and under 150%.
The matching figures for `Cc1cc(-c2ccc3c(n2)N(C(=O)Nc2cnc(C(F)(F)F)cn2)[C@H]2CCN3C2)ccn1` [(9S)-5-(2-methylpyridin-4-yl)-N-[5-(trifluoromethyl)pyrazin-2-yl]-1,6,8-triazatricyclo[7.2.1.0 {2,7}]dodeca-2(7),3,5-triene-8-carboxamide]: “C (C (EC1.5>25 μM))” and under 150%.
Take `Cc1cc(-c2ccc3c(n2)N(C(=O)Nc2cncc(C(C)C)n2)[C@H]2CCN3C2)ccn1` [(9S)-5-(2-methylpyridin-4-yl)-N-[6-(propan-2-yl)pyrazin-2-yl]-1,6,8-triazatricyclo[7.2.1.0^2,7]dodeca-2(7),3,5-triene-8-carboxamide]: the “TRP Activity (EC1.5)” value (Trp peptide assay) is reported as “A (A (EC1.5<1 μM))”. Also, the Emax under setting [1] is over 150%.
Take `Cc1cc(-c2ccc3c(n2)N(C(=O)Nc2cncc(OC(C)C)n2)[C@H]2CCN3C2)ccn1` [(9S)-5-(2-methylpyridin-4-yl)-N-[6-(propan-2-yloxy)pyrazin-2-yl]-1,6,8-triazatricyclo[7.2.1.0 {2,7}]dodeca-2(7),3,5-triene-8-carboxamide]: the “TRP Activity (EC1.5)” value (Trp peptide assay) is on record as “A (A (EC1.5<1 μM))”. In addition, the Emax under setting [1] was over 150%.
The matching figures for `Cc1cc(-c2ccc3c(n2)N(C(=O)N[C@H](C)c2ccccn2)[C@H]2CCN3C2)ccn1` [(9S)-5-(2-methylpyridin-4-yl)-N-[(1R)-1-(pyridin-2-yl)ethyl]-1,6,8-triazatricyclo[7.2.1.0 {2,7}]dodeca-2,4,6-triene-8-carboxamide]: “C (C (EC1.5>25 μM))” and under 150%.
